In patent US20080312192A1, “Diaryl Urea Derivatives in the Treatment of Protein Kinase Dependent Diseases” (priority 2003, published 2008) one finds IC50 data, which are given here for 9 molecules.

Each structure is given as a SMILES string.

For the test, the target named is T1, Flt-3 (Homo sapiens, UniProt P36888).
T1 construct: amino acids 563-993 of the cytoplasmic kinase domain of human Flt-3; made in house; host or cells: Sf9 insect cells (baculovirus, vector pFbacG01)
T1 sequence (P36888 563-993): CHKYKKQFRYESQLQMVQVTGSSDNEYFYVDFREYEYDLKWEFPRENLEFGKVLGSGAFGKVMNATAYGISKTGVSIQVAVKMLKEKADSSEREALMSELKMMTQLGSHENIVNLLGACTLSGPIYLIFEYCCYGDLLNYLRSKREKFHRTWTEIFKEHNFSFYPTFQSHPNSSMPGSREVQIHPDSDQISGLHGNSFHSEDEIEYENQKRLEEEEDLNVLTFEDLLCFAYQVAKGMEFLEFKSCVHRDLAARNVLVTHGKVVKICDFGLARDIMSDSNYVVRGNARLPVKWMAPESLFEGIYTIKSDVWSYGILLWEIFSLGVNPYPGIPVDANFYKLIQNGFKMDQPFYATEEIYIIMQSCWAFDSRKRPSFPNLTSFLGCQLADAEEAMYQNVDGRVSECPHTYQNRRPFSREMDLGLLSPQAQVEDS
Briefly: Flt-3 kinase inhibition (GST-Flt-3, 33P incorporation into poly(Glu,Tyr)). Type of test: biochemical. In short, it runs like this: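 GST-fused human Flt-3 kinase domain (aa 563-993) from Sf9 cells assayed with 3 μg/mL poly(Glu,Tyr) 4:1, 8.0 μM ATP plus [γ-33P]ATP, Mn2+/Mg2+, pH 7.6, 20 min at ambient temperature. 33P incorporation counted on PVDF; IC50 by linear regression, duplicates at four concentrations (usually 0.01-10 μM).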
As a reminder, the IC50 is the concentration that inhibits the measured activity by half. Read a high IC50 as weaker potency. `CNc1nccc(Oc2ccc(NC(=O)Nc3ccc(N4CCN(C)CC4)c(C(F)(F)F)c3)cc2)n1` [Example 53d, 1-[4-(2-Methylamino-pyrimidin-4-yloxy)-phenyl]-3-[4-(4-methyl-piperazin-1-yl)-3-trifluoromethyl-phenyl]-urea] yielded an IC50 of 190 nM.
The figure for `CNc1nccc(Oc2ccc(NC(=O)Nc3cc(N4CCN(C)CC4)cc(C(F)(F)F)c3)cc2)n1` [Example 53b, 1-[4-(2-Methylamino-pyrimidin-4-yloxy)-phenyl]-3-[3-(4-methyl-piperazin-1-yl)-5-trifluoromethyl-phenyl]-urea] is 120 nM; for `CN1CCN(Cc2ccc(NC(=O)Nc3ccc(Oc4ccnc(N)n4)cc3)cc2C(F)(F)F)CC1` [Example 52a, 1-[4-(2-amino-pyrimidin-4-yloxy)-phenyl]-3-[4-(4-methylpiperazin-1-ylmethyl)-3-trifluoromethyl-phenyl]-urea] it is 120 nM.
For the molecule `CC(C)N1CCN(Cc2ccc(NC(=O)Nc3ccc(Oc4cc(N)ncn4)cc3)cc2C(F)(F)F)CC1` [Example 19, N-[4-(6-Amino-pyrimidin-4-yloxy)-phenyl]-N′-[4-(4-isopropylpiperazin-1-ylmethyl)-3-trifluoromethyl-phenyl]-urea], the IC50 was 250 nM.
The figure for `Nc1cc(Oc2ccc(NC(=O)Nc3cc(CN4CCC4)cc(C(F)(F)F)c3)cc2)ncn1` [Example 4, N-[4-(6-Amino-pyrimidin-4-yloxy)-phenyl]-N′-(3-azetidin-1-ylmethyl-5-trifluoromethyl-phenyl)-urea] is 153 nM; for `Cc1ncn(Cc2ccc(NC(=O)Nc3ccc(Oc4ccnc(N)n4)cc3)cc2C(F)(F)F)c1C` [Example 51a.1, 1-[4-(2-Amino-pyrimidin-4-yloxy)-phenyl]-3-(4-(4,5-dimethyl-imidazol-1-ylmethyl)-3-trifluoromethyl-phenyl]-urea] it is 85 nM; for `CNc1cc(Oc2ccc(NC(=O)Nc3cc(CN4CCN(C(C)C)CC4)cc(C(F)(F)F)c3)cc2)ncn1` [Example 6, N-[4-(6-Methylamino-pyrimidin-4-yloxy)-phenyl]-N′-[3-(4-isopropylpiperazin-1-ylmethyl)-5-trifluoromethyl-phenyl]-urea] it is 400 nM.
The figure for `CC(C)(C)N1CCN(Cc2ccc(NC(=O)Nc3ccc(Oc4ccnc(N)n4)cc3)cc2C(F)(F)F)CC1` [Example 50] is 120 nM; for `CCN1CCN(Cc2ccc(NC(=O)Nc3ccc(Oc4ccnc(N)n4)cc3)cc2C(F)(F)F)CC1` [Example 52c, 1-[4-(2-Amino-pyrimidin-4-yloxy)-phenyl]-3-[4-(4-ethyl-piperazin-1-ylmethyl)-3-trifluoromethyl-phenyl]-urea] it is 29 nM.
